These are literature values, as cited in paper PMC5102340 (Advanced functional materials, 2016).

Read-outs that look alike come from different tables or passages of the source.

Turning to `Oc1ccccc1O` [Catechol], the pKa1 result is on record as “≈ 9.4” and the pKa2 result is “≈ 13.7”. Further, the pKa1 (listed as catechol) is 9.4.
